These results are taken from patent US8466167B2, “Compounds and compositions as TLR activity modulators” (IRM LLC, priority 2008, dated 2013).

The structures appear in SMILES notation.

The first test concerns the target T1, human TLR7 (Homo sapiens, UniProt Q9NYK1).
T1 construct: expressed in transfected cells; host or cells: HEK 293
T1 sequence (Q9NYK1 27-1049): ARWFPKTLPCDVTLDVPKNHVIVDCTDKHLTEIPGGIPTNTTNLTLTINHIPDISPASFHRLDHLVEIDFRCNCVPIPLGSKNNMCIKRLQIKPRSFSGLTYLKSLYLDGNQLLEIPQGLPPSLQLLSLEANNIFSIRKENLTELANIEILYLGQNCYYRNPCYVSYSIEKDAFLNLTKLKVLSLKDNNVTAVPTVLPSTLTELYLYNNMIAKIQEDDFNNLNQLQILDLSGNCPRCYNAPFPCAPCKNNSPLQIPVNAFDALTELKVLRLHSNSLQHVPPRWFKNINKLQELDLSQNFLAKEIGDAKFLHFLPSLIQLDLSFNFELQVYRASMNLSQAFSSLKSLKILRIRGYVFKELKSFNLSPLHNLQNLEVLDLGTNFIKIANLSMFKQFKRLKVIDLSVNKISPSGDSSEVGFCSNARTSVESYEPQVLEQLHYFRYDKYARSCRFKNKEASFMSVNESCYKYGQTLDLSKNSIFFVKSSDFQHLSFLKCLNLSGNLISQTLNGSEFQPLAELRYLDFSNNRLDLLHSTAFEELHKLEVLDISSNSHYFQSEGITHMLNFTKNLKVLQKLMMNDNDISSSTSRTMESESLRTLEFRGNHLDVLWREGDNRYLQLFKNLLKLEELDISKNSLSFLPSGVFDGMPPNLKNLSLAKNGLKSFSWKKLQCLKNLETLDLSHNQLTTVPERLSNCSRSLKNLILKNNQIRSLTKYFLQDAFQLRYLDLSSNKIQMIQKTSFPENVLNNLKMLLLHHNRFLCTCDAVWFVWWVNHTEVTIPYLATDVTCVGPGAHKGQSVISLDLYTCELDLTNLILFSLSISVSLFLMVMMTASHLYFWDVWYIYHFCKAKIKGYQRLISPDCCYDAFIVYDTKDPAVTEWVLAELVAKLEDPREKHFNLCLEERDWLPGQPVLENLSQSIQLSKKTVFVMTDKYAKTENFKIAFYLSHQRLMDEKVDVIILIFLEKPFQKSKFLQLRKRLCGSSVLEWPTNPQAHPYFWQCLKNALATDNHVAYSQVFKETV
Nature of the test: Reporter gene assay, HEK293-TLR7 (NF-kB-driven luciferase). The format is cell-based. The note with it: HEK293-TLR7; read-out: EC50 in HEK293-TLR7 assay. The protocol: Human embryonic kidney 293 (HEK 293) cells are stably transfected with human TLR7 or TLR8 and an NF-kB-driven luciferase reporter vector (pNifty-Luciferase). As a control assay, normal Hek293 transfected with pNifty-Luc are used. Cells are cultured in DMEM supplemented with 2 mM L-glutamine, 10% heart inactivated FBS, 1% penicillin and streptomycin, 2 μg/ml puromycin (InvivoGen #ant-pr-5) and 5 μg/ml of blasticidin (Invitrogen #46-1120). Bright-Glo™ Luciferase assay buffer and substrate are supplied by Promega #E263B and #E264B (assay substrate and buffer respectively). 384 well clear-bottom plates are supplied by Greiner bio-one (#789163-G) and are GNF custom bar-coded plates.
Cells are plated at 25,000 cells/well in 384-well plates in a final volume of 50 μl of media. Cells are allowed to adhere to the plates after overnight (18 hours) culture at 37° C. 5% CO2. Serially diluted experimental and positive control compounds are then dispensed to each well and incubated for 7 hours at 37° C. 5% CO2. Cells stimulated with DMSO alone also serve as negative controls. After the incubation, 30 μl of the pre-mix assay buffer and substrate buffer are added to each well according to manufacturer's instructions. The luminescence signal is read on a CLIPR machine with an integration time of 20 seconds per plate.
Dose response curves are generated for each compound and EC50 values were determined as the concentration that gives 50% of the maximal signal.
A general note: A reporter such as luciferase makes a cellular process visible.
For orientation: EC50 means the midpoint of the concentration-response curve. As to `Nc1nc2ccccc2c2ccc(=O)[nH]c12` [Example 15, 5-aminobenzo[f][1,7]naphthyridin-3(4H)-one], the EC50 came to 24100 nM.

Staying with this test, now noted: TLR-7 stimulation; read-out: Human TLR-7 EC50.
For `Cc1ccc2c(c1)nc(N)c1ncc(CCc3ccc4[nH]ccc4c3)cc12` [Example 44, 2-(2-(1H-indol-5-yl)ethyl)-8-methylbenzo[f][1,7]naphthyridin-5-amine], the EC50 turned out to be 107 nM.
As to `Cc1ccc2c(c1)nc(N)c1ncc(CCc3ccc(Oc4ccccc4)cc3)cc12` [Example 46, 8-methyl-2-(4-phenoxyphenethyl)benzo[f][1,7]naphthyridin-5-amine], the EC50 came out at 347 nM.
Still for that read-out and setting: with `COC(=O)CCc1ccc(CCc2cnc3c(N)nc4cc(C)ccc4c3c2)cc1` [Example 61, methyl 3-(4-(2-(5-amino-8-methylbenzo[f][1,7]naphthyridin-2-yl)ethyl)phenyl)propanoate] the figure was 582 nM.
The same measure, in the same setting: with `Cc1ccc2c(c1)nc(N)c1ncc(CCc3ccc(CCCO)cc3)cc12` [Example 62, 3-(4-(2-(5-amino-8-methylbenzo[f][1,7]naphthyridin-2-yl)ethyl)phenyl)propan-1-ol] the figure was 35 nM; with `Cc1ccc2c(c1)nc(N)c1ncc(CCc3ccc(CCC(C)(C)O)cc3)cc12` [Example 63, 4-(4-(2-(5-amino-8-methylbenzo[f][1,7]naphthyridin-2-yl)ethyl)phenyl)-2-methylbutan-2-ol], 24 nM; with `CCN1CCN(C(=O)c2ccc(CCc3cnc4c(N)nc5cc(C)ccc5c4c3)c(C)c2)CC1` [Example 126, (4-(2-(5-amino-8-methylbenzo[f][1,7]naphthyridin-2-yl)ethyl)-3-methylphenyl)(4-ethylpiperazin-1-yl)methanone], 275 nM.
For `CCCOC(=O)Oc1ccc(CCc2cnc3c(N)nc4cc(C)ccc4c3c2)cc1` [Example 138, 4-(2-(5-amino-8-methylbenzo[f][1,7]naphthyridin-2-yl)ethyl)phenyl propyl carbonate], the EC50 is 213 nM.
For `Cc1ccc2c(c1)nc(N)c1ncc(CCc3ccc(OCCN4CCOCC4)cc3C)cc12` [Example 147, 8-methyl-2-(2-methyl-4-(2-morpholinoethoxy)phenethyl)benzo[f][1,7]naphthyridin-5-amine], the EC50 is 14 nM.
For `COc1ccc(CCc2cnc3c(N)nc4cc(C)ccc4c3c2)cc1OC` [Example 178, 2-(3,4-dimethoxyphenethyl)-8-methylbenzo[f][1,7]naphthyridin-5-amine], the EC50 worked out at 562 nM.
